Read-outs that look alike come from different tables or passages of the source.
Assays:
[1] = molecular target: T1, human TrkA (Homo sapiens, UniProt P04629); experiment: Human TrkA inhibition assay; format: biochemical; settings: human TrkA phosphorylation inhibition, ATP 500 μmol/L
T1 construct: purchased Lifetechnologies PV3144
Procedure, shortened: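 Human TrkA (1 nmol/L final) preincubated 15 min with compound, then FL-peptide 27 (1.5 μmol/L) and ATP (500 μmol/L) added; 120 min at 37 °C in HEPES/MgCl2/DTT buffer. Mobility-shift measurement of phosphorylated vs non-phosphorylated substrate; IC50 by logistic regression over 3-fold dilution series.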

[2] = molecular target: T2, CYP3A4 (Homo sapiens, UniProt P08684); experiment: CYP3A4 (MDZ) MBI test; format: in vitro ADME; settings: pooled human liver microsomes, midazolam 1-hydroxylation, preincubation 0 vs 30 min
T2 construct: from tissue; host or cells: pooled human liver microsomes
Protocol: CYP3A4 (MDZ) MBI test is a test of investigating mechanism based inhibition potential on CYP3A4 by the enhancement of inhibitory degree of a metabolic reaction caused by the compound of the present invention. CYP3A4 inhibition was evaluated using pooled human liver microsomes by 1-hydroxylation reaction of midazolam (MDZ) as a marker reaction.
The reaction conditions are as follows: substrate, 10 μmol/L MDZ; pre-reaction time, 0 or 30 minutes; substrate reaction time, 2 minutes; reaction temperature, 37° C.; protein content of pooled human liver microsomes, at pre-reaction time 0.5 mg/mL, at reaction time […] (at 10-fold dilution); concentrations of the compound of the present invention, 1, 5, 10, 20 μmol/L (four points).
Pooled human liver microsomes and a solution of the compound of the present invention in K-Pi buffer (pH 7.4) as a pre-reaction solution were added to a 96-well plate at the composition of the pre-reaction. A part of pre-reaction solution was transferred to another 96-well plate, and 1/10 diluted by K-Pi buffer containing a substrate. NADPH as a co-factor was added to initiate a reaction as a marker reaction (preincubation 0 min). After a predetermined time of a reaction, methanol/acetonitrile=l/1 (v/v) solution was added to stop the reaction. In addition, NADPH was added to a remaining pre-reaction solution to initiate a pre-reaction (preincubation 30 min). After a predetermined time of a pre-reaction, a part was transferred to another 96-well plate, and 1/10 diluted by K-Pi buffer containing a substrate to initiate a reaction as a marker reaction. After a predetermined time of a reaction, methanol/acetonitrile=1/1 (v/v) solution was added to stop the reaction. After centrifuged at 3000 rpm for 15 minutes, 1-hydroxymidazolam in the supernatant was quantified by LC/MS/MS.
The sample adding DMSO as a solvent to a reaction system instead of a solution dissolving the compound of the present invention was adopted as a control (100%). Remaining activity (%) was calculated at each concentration of the compound of the present invention compared to a control, and IC value was calculated by reverse-presumption by a logistic model using a concentration and an inhibition rate. Shifted IC value was calculated as “IC of preincubation at 0 min/IC of preincubation at 30 min”. When a shifted IC is 1.5 or more, this is defined as positive. When a shifted IC is 1.0 or less, this is defined as negative.

[3] = molecular target: T3, hERG channel (IKr) (Homo sapiens, UniProt Q12809); experiment: hERG test (whole cell patch clamp, IKr); format: cell-based; settings: CHO cells expressing hERG channel, read-out: % inhibition of tail peak current (IKr); for inhibition at 5 μmol/L: pH 7.4, 5 μmol/L of test compound; for inhibition at 30 μmol/L: pH 7.4, 30 μmol/L of test compound; for inhibition at 10 μmol/L: pH 7.4, 10 μmol/L of test compound
T3 construct: expressed in transfected cells; host or cells: CHO cells
From the text: For the purpose of assessing risk of an electrocardiogram QT interval prolongation of the compound of the present invention, effects of the compound of the present invention on delayed rectifier K+ current (IKr), which plays an important role in the ventricular repolarization process, was studied using CHO cells expressing human ether-a-go-go related gene (hERG) channel.
After a cell was retained at a membrane potential of −80 mV by whole cell patch clamp method using an automated patch clamp system (QPatch; Sophion Bioscience A/S) and gave a leak potential of −50 mV, IKr induced by depolarization pulse stimulation at +20 mV for 2 seconds, and further, repolarization pulse stimulation at −50 mV for 2 seconds, was recorded. A vehicle, which is the 0.1-0.3% dimethyle sulfoxide solution in extracellular solution (NaCl: 145 mmol/L, KCl: 4 mmol/L, CaCl2: 2 mmol/L, MgCl2: 1 mmol/L, glucose: 10 mmol/L, HEPES (4-(2-hydroxyethyl)-1-piperazineethanesulfonic acid): 10 mmol/L, pH7.4), or the compound of the present invention had been dissolved at an objective concentration in the extracellular solution is applied to the cell at room temperature for 7 minutes or more. From the recording IKr, an absolute value of the tail peak current was measured based on the current value at the resting membrane potential using analysis software (QPatch assay software; Sophion Bioscience A/S). Further, the % inhibition of tail peak current for the compound of the present invention relative to the tail peak current after application of the vehicle is calculated to assess influence of the compound of the present invention on IKr.

T1 sequence (P04629 33-796): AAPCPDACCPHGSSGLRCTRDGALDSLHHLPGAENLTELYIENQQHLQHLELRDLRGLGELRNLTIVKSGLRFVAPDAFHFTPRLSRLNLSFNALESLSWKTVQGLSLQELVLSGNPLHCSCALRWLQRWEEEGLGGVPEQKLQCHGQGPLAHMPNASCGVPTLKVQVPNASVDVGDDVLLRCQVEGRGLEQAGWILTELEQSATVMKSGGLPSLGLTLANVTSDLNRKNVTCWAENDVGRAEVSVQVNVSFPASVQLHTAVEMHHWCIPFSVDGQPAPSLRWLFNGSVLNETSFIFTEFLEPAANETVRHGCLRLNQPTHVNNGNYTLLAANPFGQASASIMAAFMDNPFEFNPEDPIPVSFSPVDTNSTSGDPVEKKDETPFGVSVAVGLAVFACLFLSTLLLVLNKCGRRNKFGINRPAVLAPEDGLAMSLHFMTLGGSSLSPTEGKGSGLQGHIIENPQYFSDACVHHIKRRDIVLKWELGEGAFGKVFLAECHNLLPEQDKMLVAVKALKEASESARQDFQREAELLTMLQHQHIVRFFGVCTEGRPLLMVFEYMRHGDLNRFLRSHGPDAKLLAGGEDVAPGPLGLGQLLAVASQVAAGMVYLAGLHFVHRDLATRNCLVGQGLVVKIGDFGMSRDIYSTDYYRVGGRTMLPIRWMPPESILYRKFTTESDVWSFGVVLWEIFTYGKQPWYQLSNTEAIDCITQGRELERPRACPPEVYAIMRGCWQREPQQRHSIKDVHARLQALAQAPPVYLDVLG
T3 sequence (Q12809 whole entry): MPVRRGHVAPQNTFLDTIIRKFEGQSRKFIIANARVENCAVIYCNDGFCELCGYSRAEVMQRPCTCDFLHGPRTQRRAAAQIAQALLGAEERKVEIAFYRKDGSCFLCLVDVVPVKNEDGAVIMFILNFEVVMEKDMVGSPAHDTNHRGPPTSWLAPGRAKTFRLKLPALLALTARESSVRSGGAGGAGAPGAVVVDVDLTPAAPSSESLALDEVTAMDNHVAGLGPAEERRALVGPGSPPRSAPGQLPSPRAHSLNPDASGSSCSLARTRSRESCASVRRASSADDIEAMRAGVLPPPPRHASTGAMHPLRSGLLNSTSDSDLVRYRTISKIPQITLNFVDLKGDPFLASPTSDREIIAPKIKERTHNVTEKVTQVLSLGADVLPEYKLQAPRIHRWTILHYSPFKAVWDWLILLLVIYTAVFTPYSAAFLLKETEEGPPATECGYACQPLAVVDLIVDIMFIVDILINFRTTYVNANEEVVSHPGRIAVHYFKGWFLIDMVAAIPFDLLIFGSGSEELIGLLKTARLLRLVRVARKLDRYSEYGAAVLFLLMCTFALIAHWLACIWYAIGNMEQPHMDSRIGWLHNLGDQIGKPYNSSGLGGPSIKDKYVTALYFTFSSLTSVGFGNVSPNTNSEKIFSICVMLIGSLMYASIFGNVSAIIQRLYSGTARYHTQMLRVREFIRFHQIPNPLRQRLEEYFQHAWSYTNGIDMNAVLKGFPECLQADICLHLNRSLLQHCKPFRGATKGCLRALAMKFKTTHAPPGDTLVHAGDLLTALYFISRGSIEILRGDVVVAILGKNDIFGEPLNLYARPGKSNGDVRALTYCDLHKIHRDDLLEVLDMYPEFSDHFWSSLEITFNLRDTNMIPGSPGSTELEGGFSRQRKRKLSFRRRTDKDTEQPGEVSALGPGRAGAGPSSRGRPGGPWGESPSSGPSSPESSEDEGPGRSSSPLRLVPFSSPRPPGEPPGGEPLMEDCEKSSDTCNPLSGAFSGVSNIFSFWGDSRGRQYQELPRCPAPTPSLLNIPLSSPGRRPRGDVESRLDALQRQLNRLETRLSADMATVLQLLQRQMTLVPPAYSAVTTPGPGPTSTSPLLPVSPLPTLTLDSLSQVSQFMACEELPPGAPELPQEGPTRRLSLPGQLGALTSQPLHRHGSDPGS
T2 sequence (P08684 whole entry): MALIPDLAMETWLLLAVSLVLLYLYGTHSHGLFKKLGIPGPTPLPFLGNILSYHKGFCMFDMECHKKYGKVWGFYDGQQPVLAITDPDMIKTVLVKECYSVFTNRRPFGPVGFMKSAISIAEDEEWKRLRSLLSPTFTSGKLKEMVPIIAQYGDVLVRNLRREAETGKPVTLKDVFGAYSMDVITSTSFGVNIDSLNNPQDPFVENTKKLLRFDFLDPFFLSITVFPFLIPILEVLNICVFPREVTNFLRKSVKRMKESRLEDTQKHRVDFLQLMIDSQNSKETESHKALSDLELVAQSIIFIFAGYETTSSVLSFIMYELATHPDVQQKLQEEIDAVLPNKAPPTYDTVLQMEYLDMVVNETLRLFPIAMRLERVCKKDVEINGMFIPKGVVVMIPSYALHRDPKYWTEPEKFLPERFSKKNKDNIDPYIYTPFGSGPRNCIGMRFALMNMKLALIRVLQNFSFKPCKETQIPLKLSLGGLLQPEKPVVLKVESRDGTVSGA

Question: `COCC[C@@H]1C[C@@H](NC(=O)Nc2c(C)c(-c3cnc(C)nc3)nn2-c2ccccc2)[C@H](c2ccnc(F)c2)C1` [Compound I-164] was tested. Which IC50 ([1]; read-out: IC50 value) did it give?
Answer: 1.8 nM

Question: And the “mechanism based inhibition of CYP3A4 (shifted IC)” value [2]?
Answer: Negative (When a shifted IC is 1.0 or less, this is defined as negative)

Question: What does the source list for `COCCN1C[C@@H](NC(=O)Nc2c(C)c(-c3cnc(CO)nc3)nn2-c2ccccc2)[C@H](c2ccccc2)C1` (racemic) [Compound I-10]?
Answer: IC50 ([1]; read-out: IC50_nM): < 100 nM; inhibition at 5 μmol/L [3]: 34.6%

Question: `COCCN1C[C@@H](NC(=O)Nc2c(C)c(-c3cnn(C)c3)nn2-c2ccccc2)[C@H](c2cnc(F)c(F)c2)C1` (racemic) [Compound I-5] was tested. Which IC50 ([1]; read-out: IC50_nM) did it give?
Answer: < 100 nM

Question: What about the “mechanism based inhibition of CYP3A4 (shifted IC)” value [2] of the same molecule?
Answer: Negative (When a shifted IC is 1.0 or less, this is defined as negative)

Question: And the inhibition at 30 μmol/L [3]?
Answer: 35.3%

Question: For `CCOc1ncc(-c2nn(-c3ccccc3)c(NC(=O)N[C@@H]3C[C@@H](CCOC)N(C)[C@H]3c3ccnc(F)c3)c2C)cn1` [Compound I-93], which IC50 ([1]; read-out: IC50_nM) is on record?
Answer: < 100 nM

Question: What about the inhibition at 5 μmol/L [3] of the same molecule?
Answer: 11.6%

Question: Which IC50 ([1]; read-out: IC50_nM) does the source give for `CCN1CCC(NC(=O)c2cc(-c3nn(-c4ccccc4)c(NC(=O)N[C@@H]4C[C@@H](CCOC)C[C@H]4c4ccccc4)c3C)ccn2)CC1` [Compound I-67] here?
Answer: < 100 nM

Question: What about the inhibition at 5 μmol/L [3] of the same molecule?
Answer: 16.3%

Question: Which IC50 ([1]; read-out: IC50_nM) does the source give for `CCOc1ncc(-c2nn(-c3ccccc3)c(NC(=O)N[C@@H]3C[C@@H](CCOC)C[C@H]3c3ccc(F)c(F)c3)c2C)cn1` [Compound I-169] here?
Answer: < 100 nM

Question: And the inhibition at 10 μmol/L [3]?
Answer: 21%

Question: Which results are given for `COCC[C@@H]1C[C@@H](NC(=O)Nc2c(C)c(-c3cnc(OC)nc3)nn2-c2ccccc2)[C@H](c2ccnc(F)c2)N1C` [Compound I-92]?
Answer: IC50 ([1]; read-out: IC50 value): 0.74 nM; inhibition at 30 μmol/L [3]: 19.3%

Question: Which IC50 ([1]; read-out: IC50_nM) does the source give for `COCC[C@@H]1C[C@@H](NC(=O)Nc2c(C)c(-c3cnn(C)c3)nn2-c2ccccc2)[C@H](c2ccnc(F)c2)N1C` [Compound I-68] here?
Answer: < 100 nM

Question: What about the “mechanism based inhibition of CYP3A4 (shifted IC)” value [2] of the same molecule?
Answer: Negative (When a shifted IC is 1.0 or less, this is defined as negative)

Question: What about the inhibition at 30 μmol/L [3] of the same molecule?
Answer: 12.8%

Question: For `CCOc1ncc(-c2nn(-c3ccccc3)c(NC(=O)N[C@@H]3C[C@@H](CCOC)N(C)[C@H]3c3ccc(F)c(F)c3)c2C)cn1` [Compound I-174], which IC50 ([1]; read-out: IC50_nM) is on record?
Answer: < 100 nM

Question: And the inhibition at 10 μmol/L [3]?
Answer: 33.6%

Question: With `COCC[C@@H]1C[C@@H](NC(=O)Nc2c(C)c(-c3cnc(C)nc3)nn2-c2ccccc2)[C@H](c2ccnc(F)c2)N1C` [Compound I-173] as the molecule, how does the IC50 ([1]; read-out: IC50 value) read?
Answer: 0.92 nM

Question: What about the “mechanism based inhibition of CYP3A4 (shifted IC)” value [2] of the same molecule?
Answer: Negative (When a shifted IC is 1.0 or less, this is defined as negative)

Question: With `CCN1CCC(NC(=O)c2cc(-c3nn(-c4ccccc4)c(NC(=O)N[C@@H]4C[C@@H](CCOC)N(C)[C@H]4c4ccc(F)c(F)c4)c3C)ccn2)CC1` [Compound I-66] as the molecule, how does the IC50 ([1]; read-out: IC50_nM) read?
Answer: < 100 nM

Question: And the inhibition at 5 μmol/L [3]?
Answer: 22.6%
